Assay results published in patent publication US20240342156A1, “METHODS FOR TREATING PAIN” (Xenon Pharmaceuticals Inc., priority 2019, published 2024).
Like-named read-outs stand apart in the source and are kept apart here.

Key:
[1] = system: rat spinal nerve ligation (SNL)/Chung model of neuropathic pain; assay: Spinal nerve ligation (SNL)/Chung model, thermal allodynia, cold plate test on lesioned paw; format: in vivo
Protocol: Objective: The efficacy of Compound A was assessed using the rat spinal nerve ligation (SNL)/Chung model of neuropathic pain. The SNL model in rats was developed as described previously (Chung J M, Kim H K, Chung K. “Segmental spinal nerve ligation model of neuropathic pain.” Methods Mol. Med. 99 (2004) 35-45).
Study Design. Briefly, on Day 0, von Frey and cold plate tests were used for baseline measurements of tactile and cold allodynia respectively. Post-baseline measurements, rats (171-209 g male Sprague Dawley) were anesthetized and an incision at the L4-S2 level was performed to expose the left L5 nerve. […] The wound was then sutured and the rats were allowed to recover. On Day 13, post-surgery baselines for tactile and cold allodynia were measured to verify neuropathic pain. Animals were assigned to treatment groups based on the post-surgery baseline score.
Dosing: For efficacy testing, Compound A was dosed orally once a day for 5 consecutive days from Day 14-18.
The cold plate apparatus was maintained at 4±1° C. and was surrounded by an acrylic glass enclosure. Rats were placed on the plate for a period of 5 minutes. The latency to 1st paw-withdrawal, total number of paw withdrawals, and total duration of withdrawal responses were recorded for the surgery hind paw.

[2] = Crossover study with pharmacokinetic analysis, single oral dose in healthy male subjects; format: in vivo, human; details: for concentration at 6 days: oral, subjects who received placebo in Period 2
From the text: The pharmacokinetics (PK), safety, and tolerability of single doses of Compound A in healthy right-handed male human subjects were investigated in a randomized, double-blind, placebo-controlled, transcranial magnetic stimulation (TMS) crossover study.
An objective of the study was to evaluate the safety, tolerability, and pharmacokinetics of single doses of Compound A in healthy male subjects.
Twenty healthy right-handed male subjects were enrolled and randomized in a blinded fashion to receive a single oral dose of 20 mg Compound A or placebo (1:1 randomization ratio) on Day 1, then were crossed over to receive a single dose of the other treatment on Day 7.
Subjects were screened within 27 days prior to entering the study on Day 1. For Period 1, subjects were admitted to the study unit and dosed on Day 1, and discharged on Day 2. For Period 2, following a washout of 6 days, the same subjects were again admitted to the study unit and dosed on Day 7, and discharged on Day 8. All subjects returned to the clinical unit for an outpatient visit on Day 14, and received a follow-up telephone call on Day 37.
Subjects were dosed in a fed state, but the timing of dosing relative to meals was changed during the study, and varied between a high fat or standard meal eaten either 2 h or 30 minutes prior to dosing, and a high fat or standard meal eaten 1 h or 2.5 h after dosing.
The PK parameters for this study were summarized in two ways. Firstly, PK parameters were calculated where possible using the PK samples collected during each 24 h sampling period for Period 1 and Period 2 separately. Secondly, PK parameters were determined using samples beyond the 24 h sampling period (i.e., from Day 7/8 and/or Day 14). For subjects who received Compound A in the first period, PK samples taken prior to placebo treatment provided additional PK timepoints at >24 h. For subjects who received Compound A in the second period, there was no >24 h PK timepoint until a Day 14 PK sample was added. […] The full PK profile data set consists of the 16 subjects for whom PK samples were taken at >24 h post-dose. For discussion of the PK parameters below, the full PK profile data set was generally used, because it allowed more accurate estimation of PK parameters.
Initially, subjects were dosed 2 hours after a high fat meal with a relatively high fat lunch provided 1 hour after dosing. After blinded review of the PK profiles in the initial 8 subjects, the fat content of the lunch was reduced in an attempt to reduce the time to Tmax. In addition, the timing of the meal relative to dose was changed from 2 hours prior, to 30 minutes prior to dose and subsequently the fat content of the breakfast was reduced. The timing and type of meal for each subject is specified in Table 8. […] As such the PK data is presented without categorization according to meal content, or relative timing of the meal.

[3] = Day 18 at 2 h, 8 mg/kg p.o. once daily Day 14-18
[4] = Day 18 at 2 h, 16 mg/kg p.o. once daily Day 14-18
[5] = Day 18 at 2 h, 24 mg/kg p.o. once daily Day 14-18
[6] = 20 mg single oral dose, fed, Full PK Profile (N = 16)
[7] = 20 mg single oral dose, fed, Overall (N = 20)
[8] = 20 mg single oral dose, fed, Period 1 (N = 10)
[9] = 20 mg single oral dose, fed, Period 2 (N = 10)
[10] = 20 mg single oral dose, full PK data set

For Cc1cc(N2CCc3cc(F)ccc3C2)cc(C)c1NC(=O)CC(C)(C)C [Compound A, N-[4-(6-fluoro-3,4-dihydro-TH-isoquinolin-2-yl)-2,6-dimethylphenyl]-3,3-dimethylbutanamide], the “Latency to first paw-withdrawal (s), Mean ± s.e.m.” value (shortened to “Latency to first paw-withdrawal (s)”) ([1]; Day 14 at 2 h, 8 mg/kg p.o.) was 226.8 ± 29.4 s, the “Latency to first paw-withdrawal, compared with Vehicle (p.o.), Δ%” value (shortened to “Latency to first paw-withdrawal … (p.o.), Δ%”) ([1]; Day 14 at 2 h, 8 mg/kg p.o.) was “+74%” and the “Number of withdrawal responses, Mean ± s.e.m.” value (from here on “Number … Mean ± s.e.m.”) ([1]; Day 14 at 2 h, 8 mg/kg p.o.) was 2.1 ± 0.8. For the same molecule, the “Number of withdrawal responses, compared with Vehicle (p.o.), Δ%” value (“Number of withdrawal responses … (p.o.), Δ%” for short) ([1]; Day 14 at 2 h, 8 mg/kg p.o.) was −79%, the “Total duration of withdrawal responses (s), Mean ± s.e.m.” value (“Total duration … Mean ± s.e.m.” below) ([1]; Day 14 at 2 h, 8 mg/kg p.o.) was 3.4 ± 3.4 s and the “Total duration of withdrawal responses, compared with Vehicle (p.o.), Δ%” value (“Total duration … (p.o.), Δ%” below) ([1]; Day 14 at 2 h, 8 mg/kg p.o.) was “+55%”. The “Latency to first paw-withdrawal (s)” value ([1]; Day 14 at 2 h, 16 mg/kg p.o.) was 214.9 ± 29.2 s, the “Latency to first paw-withdrawal … (p.o.), Δ%” value ([1]; Day 14 at 2 h, 16 mg/kg p.o.) was “+65%” and the “Number … Mean ± s.e.m.” value ([1]; Day 14 at 2 h, 16 mg/kg p.o.) was 3.0 ± 1.7. For the same molecule, the “Number of withdrawal responses … (p.o.), Δ%” value ([1]; Day 14 at 2 h, 16 mg/kg p.o.) was −70%, the “Total duration … Mean ± s.e.m.” value ([1]; Day 14 at 2 h, 16 mg/kg p.o.) was 0.8 ± 0.7 s and the “Total duration … (p.o.), Δ%” value ([1]; Day 14 at 2 h, 16 mg/kg p.o.) was −64%. For the same molecule, the “Latency to first paw-withdrawal (s)” value ([1]; Day 14 at 2 h, 24 mg/kg p.o.) was 280.0 ± 20.0 s, the “Latency to first paw-withdrawal … (p.o.), Δ%” value ([1]; Day 14 at 2 h, 24 mg/kg p.o.) was “+115%” and the “Number … Mean ± s.e.m.” value ([1]; Day 14 at 2 h, 24 mg/kg p.o.) was 0.9 ± 0.9. For the same molecule, the “Number of withdrawal responses … (p.o.), Δ%” value ([1]; Day 14 at 2 h, 24 mg/kg p.o.) was −91%, the “Total duration … Mean ± s.e.m.” value ([1]; Day 14 at 2 h, 24 mg/kg p.o.) was 0.0 ± 0.0 s and the “Total duration … (p.o.), Δ%” value ([1]; Day 14 at 2 h, 24 mg/kg p.o.) was −100%. For the same molecule, the “thermal allodynia endpoint, comparison with morphine (128 mg/kg)” value ([1]; Day 18 (FIGS. 7-9), at both 16 and 24 mg/kg) was “outperformed morphine”, the “Latency to first paw-withdrawal (s)” value [1, 3] was 180.4 ± 26.5 s and the “Latency to first paw-withdrawal … (p.o.), Δ%” value [1, 3] was “+92%”. For the same molecule, the “Number … Mean ± s.e.m.” value [1, 3] was 7.7 ± 2.8, the “Number of withdrawal responses … (p.o.), Δ%” value [1, 3] was −29% and the “Total duration … Mean ± s.e.m.” value [1, 3] was 1.3 ± 0.9 s. For the same molecule, the “Total duration … (p.o.), Δ%” value [1, 3] was −88%, the “Latency to first paw-withdrawal (s)” value [1, 4] was 257.0 ± 23.5 s and the “Latency to first paw-withdrawal … (p.o.), Δ%” value [1, 4] was “+173%”. The “Number … Mean ± s.e.m.” value [1, 4] was 1.3 ± 2.8, the “Number of withdrawal responses … (p.o.), Δ%” value [1, 4] was −88% and the “Total duration … Mean ± s.e.m.” value [1, 4] was 0.0 ± 0.0 s. For the same molecule, the “Total duration … (p.o.), Δ%” value [1, 4] was −100%, the “Latency to first paw-withdrawal (s)” value [1, 5] was 263.8 ± 24.3 s and the “Latency to first paw-withdrawal … (p.o.), Δ%” value [1, 5] was “+180%”. For the same molecule, the “Number … Mean ± s.e.m.” value [1, 5] was 0.6 ± 0.5, the “Number of withdrawal responses … (p.o.), Δ%” value [1, 5] was −94% and the “Total duration … Mean ± s.e.m.” value [1, 5] was 0.0 ± 0.0 s. For the same molecule, the “Total duration … (p.o.), Δ%” value [1, 5] was −100%, the “Clast (ng/mL), Mean ± SD” value [2, 6] was 4.52 ± 1.82 ng/mL and the “Clast (ng/mL), Range” value [2, 6] was 1.33 to 7.67 ng/mL. The “Tlast (h), Mean ± SD” value [2, 6] was 235 ± 81.5 h, the “Tlast (h), Range” value [2, 6] was 142 to 360 h and the “Clast (ng/mL), Mean ± SD” value [2, 7] was 16.4 ± 4.69 ng/mL. The “Clast (ng/mL), Range” value [2, 7] was 7.1 to 27.8 ng/mL, the “Tlast (h), Mean ± SD” value [2, 7] was 23.8 ± 0.299 h and the “Tlast (h), Range” value [2, 7] was 23.1 to 24.3 h. The “Tmax (h), Median” value [2, 7] was 7.83 h, the “Tmax (h), Range” value [2, 7] was 1.92 to 12 h and the “Clast (ng/mL), Mean ± SD” value [2, 8] was 16.4 ± 5.61 ng/mL. The “Clast (ng/mL), Range” value [2, 8] was 10.1 to 27.8 ng/mL, the “Tlast (h), Mean ± SD” value [2, 8] was 23.8 ± 0.375 h and the “Tlast (h), Range” value [2, 8] was 23.1 to 24.3 h. For the same molecule, the “Clast (ng/mL), Mean ± SD” value [2, 9] was 16.4 ± 3.87 ng/mL, the “Clast (ng/mL), Range” value [2, 9] was 7.1 to 21.3 ng/mL and the “Tlast (h), Mean ± SD” value [2, 9] was 23.8 ± 0.213 h. For the same molecule, the “Tlast (h), Range” value [2, 9] was 23.5 to 24.1 h, the “extrapolated area (% AUCextrap), median” value [2, 10] was 19.9% and the “extrapolated area (% AUCextrap), range” value [2, 10] was 10.6-40.5%. For the same molecule, the concentration at 6 days ([2]; male, human, plasma, 20 mg, read-out: Compound A levels after washout between periods, mean) was 3.1 ng/mL, the concentration at 6 days ([2]; male, human, plasma, 20 mg, read-out: Compound A levels after washout between periods, range) was 1.3 to 6.8 ng/mL and the concentration at 2 h ([2]; male, human, plasma, po, 20 mg, 2 h timepoint, 20 mg single oral dose, full PK profile, read-out: mean SD plasma concentration) was 15.9 ± 21.4 ng/mL. It also gave a concentration at 4 h ([2]; male, human, plasma, po, 20 mg, 4 h timepoint, 20 mg single oral dose, full PK profile, read-out: mean SD plasma concentration) of 30.2 ± 21.1 ng/mL, a concentration at 6 h ([2]; male, human, plasma, po, 20 mg, 6 h timepoint, 20 mg single oral dose, full PK profile, read-out: mean SD plasma concentration) of 42.1 ± 19.1 ng/mL and an AUC(0-inf) ([2]; male, human, plasma, 20 mg single oral dose, fed, Full PK Profile Data Set (N = 16), read-out: AUCinf (ng*h/mL), Range) of 1920 to 7390 ng·h/mL. It also gave an AUC(0-t) ([2]; male, human, plasma, 20 mg single oral dose, fed, Full PK Profile Data Set (N = 16), read-out: AUClast (ng*h/mL), Range) of 1580 to 4400 ng·h/mL, a CL/F ([2]; male, human, plasma, 20 mg single oral dose, fed, Full PK Profile Data Set (N = 16), read-out: CL/F normalized (mL/h/kg), Range) of 40.3 to 136 mL/h/kg and an MRT inf ([2]; male, human, plasma, 20 mg single oral dose, fed, Full PK Profile Data Set (N = 16), read-out: MRTinf (h), Range) of 33 to 304 h. For the same molecule, the MRT last ([2]; male, human, plasma, 20 mg single oral dose, fed, Full PK Profile Data Set (N = 16), read-out: MRTlast (h), Range) was 48.2 to 122 h, the Vd/F ([2]; male, human, plasma, 20 mg single oral dose, fed, Full PK Profile Data Set (N = 16), read-out: Vz/F normalized (L/kg), Range) was 6.4 to 33.8 L/kg and the Tmax ([2]; male, human, plasma, 20 mg single oral dose, fed, Overall (N = 20), read-out: Tmax (h), Median) was ~8 h.
